Assay results taken from ChEMBL document CHEMBL5528066, “Discovery of Novel N-(Anthracen-9-ylmethyl) Benzamide Derivatives as ZNF207 Inhibitors Promising in Treating Glioma” (J Med Chem, 2024).
The source made the active and inactive calls. No cut-off for these calls is given here.

What was measured:
U-251 = assay: Antiproliferative activity against human U-251MG cells assessed as inhibition of cell growth measured after 72 hrs by CCK-8 assay; type: functional, cell-based; conditions: U-251, 72 h
LN-229 [1] = assay: Antiproliferative activity against human LN-229 cells assessed as inhibition of cell growth measured after 72 hrs by CCK-8 assay; type: functional, cell-based; conditions: LN-229, 72 h
Hs 683 = assay: Antiproliferative activity against human Hs 683 cells assessed as inhibition of cell growth measured after 72 hrs by CCK-8 assay; type: functional, cell-based; conditions: Hs 683, 72 h
H4 = assay: Antiproliferative activity against human H4 cells assessed as inhibition of cell growth measured after 72 hrs by CCK-8 assay; type: functional, cell-based; conditions: H4, 72 h
[2] = molecular target: BUB3-interacting and GLEBS motif-containing protein ZNF207 (Homo sapiens, UniProt O43670); assay: Binding affinity to human ZNF207 assessed as dissociation constant by SPR analysis
Chain of BUB3-interacting and GLEBS motif-containing protein ZNF207 (O43670 whole entry): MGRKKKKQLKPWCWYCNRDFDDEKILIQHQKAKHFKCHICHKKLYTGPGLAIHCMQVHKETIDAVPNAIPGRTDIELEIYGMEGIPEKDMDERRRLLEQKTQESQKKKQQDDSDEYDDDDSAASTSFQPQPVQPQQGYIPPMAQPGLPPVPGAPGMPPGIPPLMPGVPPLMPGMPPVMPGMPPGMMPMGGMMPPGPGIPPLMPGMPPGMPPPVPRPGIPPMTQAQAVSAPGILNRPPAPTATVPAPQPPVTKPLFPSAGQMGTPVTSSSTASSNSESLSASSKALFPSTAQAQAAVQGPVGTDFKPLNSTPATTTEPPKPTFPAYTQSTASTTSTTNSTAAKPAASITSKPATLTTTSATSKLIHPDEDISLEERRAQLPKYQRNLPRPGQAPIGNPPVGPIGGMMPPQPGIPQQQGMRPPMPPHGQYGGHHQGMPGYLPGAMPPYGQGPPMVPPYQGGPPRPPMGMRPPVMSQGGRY

LN-229 [3] = assay: Antitumor activity against human LN-229 cells xenografted in BALB/c nude mouse assessed as tumor growth inhibition at 150 mg/kg, ip administered twice a week and measured every 2 days for 49 days relative to control; type: functional; conditions: LN-229, 1176 h, time 49 day, read-out: TGI
LN-229 [4] = assay: Antitumor activity against human LN-229 cells xenografted in BALB/c nude mouse assessed as reduction in proportion of Ki-67 positive cells at 150 mg/kg, ip administered twice a week and measured after 49 days by immunohistochemistry analysis; type: functional, organism-based; conditions: time 49.0 day
LN-229-Luc = assay: Antitumor activity against human Ln-229-Luc cells xenografted in BALB/c nude mouse assessed as increase in overall survival time at 150 mg/kg, ip administered twice a week and measured after 3 to 31 days; type: functional, organism-based; conditions: time 3-31 day

Row | Structure (SMILES) | IC50 (U-251) [µM] | Kd [2] [µM] | IC50 (LN-229 [1]) [µM] | IC50 (Hs 683) [µM] | IC50 (H4) [µM] | inhibition in vivo at 150 mg/kg (LN-229 [3]) [%] | Activity (LN-229 [4]) | Activity (LN-229-Luc)
1 | N#CC1(C(=O)NCc2cccc(Cl)c2Cl)CC2c3ccccc3C1c1ccccc12 (racemic) | > 80 | – | > 80 | > 80 | > 80 | – | – | –
2 | COc1cc(NC(=O)C2(C#N)CC3c4ccccc4C2c2ccccc23)cc(OC)c1 (racemic) | > 80 | – | > 80 | > 80 | > 80 | – | – | –
3 | Cc1ccccc1NC(=O)C1(C#N)CC2c3ccccc3C1c1ccccc12 (racemic) | > 80 | – | > 80 | > 80 | > 80 | – | – | –
4 | N#CC1(C(=O)NCCc2cccc(F)c2)CC2c3ccccc3C1c1ccccc12 (racemic) | 40.5 | – | 33 | 46.6 | 50 | – | – | –
5 | N#CC1(C(=O)Nc2ccc(F)cc2)CC2c3ccccc3C1c1ccccc12 (racemic) | > 80 | – | > 80 | > 80 | > 80 | – | – | –
6 | N#CC1(C(=O)NCCc2cccc(Cl)c2)CC2c3ccccc3C1c1ccccc12 (racemic) | 54.3 | – | 36.6 | > 80 | 18.8 | – | – | –
7 | N#CC1(C(=O)Nc2ccc(N)cc2)CC2c3ccccc3C1c1ccccc12 (racemic) | > 80 | – | > 80 | > 80 | 61.7 | – | – | –
8 | N#CC1(C(=O)NCCc2ccc3c(c2)OCO3)CC2c3ccccc3C1c1ccccc12 (racemic) | > 80 | – | 36.8 | 44 | > 80 | – | – | –
9 | N#CC1(C(=O)NCCc2ccccc2F)CC2c3ccccc3C1c1ccccc12 (racemic) | 38.1 | – | 49 | > 80 | 26 | – | – | –
10 | N#CC1(C(=O)NCc2ccccc2)CC2c3ccccc3C1c1ccccc12 (racemic) | > 80 | – | > 80 | > 80 | > 80 | – | – | –
11 | O=C(NCCC1CCN(Cc2ccccc2)CC1)C1(Cl)CC2(Br)c3ccccc3C1c1ccccc12 (racemic) | 24.1 | – | 12.4 | 38.7 | 19.1 | – | – | –
12 | COc1ccc(NC(=O)C2(C#N)CC3c4ccccc4C2c2ccccc23)cc1C (racemic) | > 80 | – | > 80 | > 80 | > 80 | – | – | –
13 | N#CC1(C(=O)NCCC2CCN(Cc3ccccc3)CC2)CC2c3ccccc3C1c1ccccc12 (racemic) | 35.9 | – | 11.6 | 19.1 | 26.6 | – | – | –
14 | N#CC1(C(=O)Nc2ccc([N+](=O)[O-])cc2)CC2c3ccccc3C1c1ccccc12 (racemic) | 13.5 | 2.4 | 19.4 | 26.4 | 25.3 | – | – | –
15 | COc1cc(NC(=O)C2(C#N)CC3c4ccccc4C2c2ccccc23)cc(OC)c1OC (racemic) | > 80 | – | > 80 | > 80 | > 80 | – | – | –
16 | N#CC1(C(=O)Nc2ccc3c(c2)OCO3)CC2c3ccccc3C1c1ccccc12 (racemic) | 72.6 | – | 45.5 | > 80 | 20 | – | – | –
17 | COc1ccc(NC(=O)C2(C#N)CC3c4ccccc4C2c2ccccc23)cc1 (racemic) | > 80 | – | > 80 | > 80 | > 80 | – | – | –
18 | Cn1nnc2c(C(N)=O)ncn2c1=O [TEMOZOLOMIDE] | 43.5 | – | 54.1 | 47.2 | 47.9 | 69.6 | Active | Active

Second part, led by results:

Row | IC50 (U-251) [µM] | Kd [2] [µM] | Structure (SMILES) | IC50 (LN-229 [1]) [µM] | IC50 (Hs 683) [µM] | IC50 (H4) [µM] | inhibition in vivo at 150 mg/kg (LN-229 [3]) [%] | Activity (LN-229 [4]) | Activity (LN-229-Luc)
19 | 16.8 | – | N#CC1(C(=O)NCCSc2ccccc2)CC2(Br)c3ccccc3C1c1ccccc12 (racemic) | 14.4 | 11.6 | 16.9 | – | – | –
20 | 15.7 | – | N#CC1(C(=O)NCC2CCN(Cc3ccccc3)CC2)CC2(Br)c3ccccc3C1c1ccccc12 (racemic) | 5.94 | 14.9 | 3.32 | – | – | –
21 | > 80 | – | N#CC1(C(=O)NCC2CCN(Cc3ccc(F)cc3)CC2)CC2(Br)c3ccccc3C1c1ccccc12 (racemic) | > 80 | > 80 | > 80 | – | – | –
22 | 37.7 | – | N#CC1(C(=O)NCCCc2ccc(Br)cc2)CC2(Br)c3ccccc3C1c1ccccc12 (racemic) | 24.6 | 47.3 | 53.1 | – | – | –
23 | 30 | – | N#CC1(C(=O)NCCc2ccc(Br)cc2)CC2(Br)c3ccccc3C1c1ccccc12 (racemic) | 9.73 | 8.43 | 10.3 | – | – | –
24 | > 80 | – | N#CC1(C(=O)NCCc2ccc(F)cc2)CC2(Br)c3ccccc3C1(Br)c1ccccc12 (racemic) | > 80 | > 80 | 54 | – | – | –
25 | 48.3 | – | N#CC1(C(=O)NCCc2ccc([N+](=O)[O-])cc2)CC2c3ccccc3C1c1ccccc12 (racemic) | 23.8 | > 80 | 36.9 | – | – | –
26 | 34.9 | – | N#CC1(C(=O)NCCc2ccc(F)cc2)CC2(CCl)c3ccccc3C1c1ccccc12 (racemic) | 60.2 | 52.8 | 32.6 | – | – | –
27 | 39.8 | – | N#CC1(C(=O)NCCc2ccc(F)cc2)CC2(CO)c3ccccc3C1c1ccccc12 (racemic) | 15 | 21.8 | 30.7 | – | – | –
28 | 21.4 | – | N#CC1(C(=O)NCCc2ccc(F)cc2)CC2(Br)c3ccccc3C1c1ccccc12 (racemic) | 14.6 | 19.8 | 15.3 | – | – | –
29 | > 80 | – | Cc1ccc(CCNC(=O)C2(C#N)CC3c4ccccc4C2c2ccccc23)cc1 (racemic) | 60.8 | 39.9 | > 80 | – | – | –
30 | 18.1 | – | N#CC1(C(=O)NCCC2CCN(Cc3ccc(F)cc3)CC2)CC2(Br)c3ccccc3C1c1ccccc12 (racemic) | 18.7 | 21.9 | 18 | – | – | –
31 | > 80 | – | N#CC1(C(=O)NCCc2ccccc2F)CC2(Br)c3ccccc3C1c1ccccc12 (racemic) | > 80 | > 80 | > 80 | – | – | –
32 | 52.3 | – | N#CC1(C(=O)NCCc2ccc(F)cc2)CC2c3ccccc3C1c1ccccc12 (racemic) | 32.5 | 43.6 | 35.2 | – | – | –
33 | 21.2 | – | N#CC1(C(=O)NCCS(=O)(=O)Nc2ccc(F)cc2)CC2(Br)c3ccccc3C1c1ccccc12 (racemic) | 12.7 | 17.8 | 21.9 | – | – | –
34 | 49.8 | – | N#CC1(C(=O)NCCC(=O)Nc2ccc(F)cc2)CC2(Br)c3ccccc3C1c1ccccc12 (racemic) | 14.6 | 12.6 | 15.8 | – | – | –
35 | 23.2 | – | N#CC1(C(=O)NCCS(=O)(=O)Nc2ccccc2)CC2(Br)c3ccccc3C1c1ccccc12 (racemic) | 26.6 | 15.2 | 22.7 | – | – | –
36 | > 80 | – | O=C(NCCc1ccc(F)cc1)C1(Cl)CC2(Br)c3ccccc3C1c1ccccc12 (racemic) | > 80 | > 80 | > 80 | – | – | –
37 | 25.1 | – | N#CC1(C(=O)NC2CCN(Cc3ccccc3)CC2)CC2(Br)c3ccccc3C1c1ccccc12 (racemic) | 7.36 | 11.3 | 9.84 | – | – | –
38 | 18.7 | – | CC12CC(C#N)(C(=O)NCCc3ccc(F)cc3)C(c3ccccc31)c1ccccc12 (racemic) | 28.9 | 24.6 | 22.3 | – | – | –
39 | 23.5 | – | N#CC1(C(=O)NCCS(=O)(=O)c2ccc(Cl)cc2)CC2(Br)c3ccccc3C1c1ccccc12 (racemic) | 9.14 | 10.4 | 15.3 | – | – | –
40 | 24 | – | N#CC1(C(=O)NCCc2ccc(Cl)cc2)CC2(Br)c3ccccc3C1c1ccccc12 (racemic) | 7.85 | 23.1 | 25 | – | – | –
41 | 45.8 | – | N#CC1(C(=O)NCCCc2ccccc2)CC2(Br)c3ccccc3C1c1ccccc12 (racemic) | 19.8 | > 80 | 49 | – | – | –
42 | 18.8 | – | CC(=O)C12CC(C#N)(C(=O)NCCc3ccc(F)cc3)C(c3ccccc31)c1ccccc12 (racemic) | 29.5 | 20.7 | 24.7 | – | – | –
